Data taken from the supplement of paper PMC11451515.

Key:
Conditions in all cases: 48 h
[1] = test system: NOMO1; assay: cell viability relative to DMSO control; higher = less cytotoxic
Method in brief: (§1)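 In 1536-well plates, 5 μl of leukemia cells were seeded per well: 500 cells/well for NOMO1 or SEM and 1000 cells/well for P12-Ichikawa. Each line had first been adapted for at least four passages in each medium. Library compounds in DMSO were pin-dosed at 11 threefold concentrations between 47 μM and 0.79 nM, and CellTiter-Glo One luminescence was read after 48 h at 37°C. Viability is a per-plate percentage relative to DMSO wells, with cell-free wells as background.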

[2] = test system: P12-Ichikawa; assay: as above
Method in brief: as §1

[3] = test system: SEM cells; assay: as above
Method in brief: as §1

[4] = test system: NOMO1; assay: AUC of viability dose-response curve (% viability x log10 dose units); higher = less sensitive
Method in brief: (§2)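 Seeding of medium-adapted leukemia cells was at 500 or 1000 cells/well in 1536-well plates, followed by 48 h at 37°C with library compounds in DMSO at 11 threefold doses from 47 μM to 0.79 nM. CellTiter-Glo One luminescence was normalised per plate to DMSO and cell-free wells and fitted as a four-parameter log-logistic function of log10 dose. Area under the curve was integrated by trapezoidal rule, with curves exceeding full viability scaled and curves failing quality control removed.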

[5] = test system: P12-Ichikawa; assay: as above
Method in brief: as §2

[6] = test system: SEM cells; assay: as above
Method in brief: as §2

C[N+]1(C)[C@@H]2C[C@@H](OC(=O)[C@H](CO)c3ccccc3)C[C@H]1[C@@H]1O[C@@H]12.[Br-]
cell viability [%]
Conditions | [1] | [2] | [3]
HPLM + 10% dialyzed FBS, 0.000781 µM | 91.9 | 88.6 | 85
HPLM + 10% dialyzed FBS, 0.00234 µM | 95.1 | 94.2 | 94.6
HPLM + 10% dialyzed FBS, 0.00702 µM | 108 | 94.3 | 96.1
HPLM + 10% dialyzed FBS, 0.0211 µM | 113 | 102 | 93.9
HPLM + 10% dialyzed FBS, 0.0632 µM | 105 | 104 | 105
HPLM + 10% dialyzed FBS, 0.19 µM | 99.4 | 104 | 102
HPLM + 10% dialyzed FBS, 0.569 µM | 86.5 | 96.9 | 110
HPLM + 10% dialyzed FBS, 1.71 µM | 93.5 | 90.8 | 117
HPLM + 10% dialyzed FBS, 5.12 µM | 99.5 | 100 | 103
HPLM + 10% dialyzed FBS, 15.4 µM | 89.2 | 106 | 114
HPLM + 10% dialyzed FBS, 46.1 µM | 101 | 102 | 102
RPMI 5 mM glucose + 10% FBS, 0.000781 µM | 95.5 | 95 | 92.3
RPMI 5 mM glucose + 10% FBS, 0.00234 µM | 91.8 | 103 | 90.4
RPMI 5 mM glucose + 10% FBS, 0.00702 µM | 86.6 | 105 | 102
RPMI 5 mM glucose + 10% FBS, 0.0211 µM | 89.4 | 99.1 | 95.1
RPMI 5 mM glucose + 10% FBS, 0.0632 µM | 85 | 108 | 100
RPMI 5 mM glucose + 10% FBS, 0.19 µM | 88.5 | 99.2 | 92
RPMI 5 mM glucose + 10% FBS, 0.569 µM | 86.9 | 101 | 107
RPMI 5 mM glucose + 10% FBS, 1.71 µM | 90.3 | 98.7 | 112
RPMI 5 mM glucose + 10% FBS, 5.12 µM | 90.4 | 97.8 | 105
RPMI 5 mM glucose + 10% FBS, 15.4 µM | 86.1 | 122 | 93.3
RPMI 5 mM glucose + 10% FBS, 46.1 µM | 86.8 | 110 | 89.5
RPMI 5 mM glucose + 10% dialyzed FBS, 0.000781 µM | 83 | 82.4 | 77.3
RPMI 5 mM glucose + 10% dialyzed FBS, 0.00234 µM | 90.5 | 47.6 | 87.2
RPMI 5 mM glucose + 10% dialyzed FBS, 0.00702 µM | 86.9 | 90.7 | 109
RPMI 5 mM glucose + 10% dialyzed FBS, 0.0211 µM | 91 | 90.7 | 98.6
RPMI 5 mM glucose + 10% dialyzed FBS, 0.0632 µM | 91.6 | 97.8 | 105
RPMI 5 mM glucose + 10% dialyzed FBS, 0.19 µM | 90.8 | 99.5 | 107
RPMI 5 mM glucose + 10% dialyzed FBS, 0.569 µM | 91.6 | 101 | 112
RPMI 5 mM glucose + 10% dialyzed FBS, 1.71 µM | 97.2 | 89.9 | 105
RPMI 5 mM glucose + 10% dialyzed FBS, 5.12 µM | 107 | 91.2 | 121
RPMI 5 mM glucose + 10% dialyzed FBS, 15.4 µM | 89 | 99.6 | 103
RPMI 5 mM glucose + 10% dialyzed FBS, 46.1 µM | 98.7 | 103 | 101

AUC of viability dose-response curve
Conditions | [4] | [5] | [6]
HPLM + 10% dialyzed FBS | 457 | 456 | 448
RPMI 5 mM glucose + 10% FBS | 423 | 424 | 467
RPMI 5 mM glucose + 10% dialyzed FBS | 442 | 435 | 462

CC(=O)OCC(=O)[C@@]12\N=C(C)/O[C@@H]1C[C@H]3[C@@H]4CCC/5=C/C(=O)/C=C\[C@]5(C)[C@H]4[C@@H](O)C[C@]23C
cell viability [%]
Conditions | [1] | [2] | [3]
HPLM + 10% dialyzed FBS, 0.000781 µM | 107 | 103 | 75.3
HPLM + 10% dialyzed FBS, 0.00234 µM | 102 | 111 | 85.5
HPLM + 10% dialyzed FBS, 0.00702 µM | 109 | 108 | 87.8
HPLM + 10% dialyzed FBS, 0.0211 µM | 130 | 113 | 85.1
HPLM + 10% dialyzed FBS, 0.0632 µM | 133 | 103 | 68
HPLM + 10% dialyzed FBS, 0.19 µM | 137 | 114 | 97
HPLM + 10% dialyzed FBS, 0.569 µM | 122 | 108 | 97.8
HPLM + 10% dialyzed FBS, 1.71 µM | 128 | 105 | 100
HPLM + 10% dialyzed FBS, 5.12 µM | 105 | 80.6 | 92.5
HPLM + 10% dialyzed FBS, 15.4 µM | 121 | 73 | 90.1
HPLM + 10% dialyzed FBS, 46.1 µM | 86.6 | 63.9 | 24.9
RPMI 5 mM glucose + 10% FBS, 0.000781 µM | 94.3 | 102 | 86.6
RPMI 5 mM glucose + 10% FBS, 0.00234 µM | 106 | 123 | 103
RPMI 5 mM glucose + 10% FBS, 0.00702 µM | 94.6 | 116 | 91.5
RPMI 5 mM glucose + 10% FBS, 0.0211 µM | 105 | 114 | 102
RPMI 5 mM glucose + 10% FBS, 0.0632 µM | 108 | 85.1 | 66.3
RPMI 5 mM glucose + 10% FBS, 0.19 µM | 106 | 115 | 109
RPMI 5 mM glucose + 10% FBS, 0.569 µM | 107 | 115 | 97.9
RPMI 5 mM glucose + 10% FBS, 1.71 µM | 113 | 94.1 | 113
RPMI 5 mM glucose + 10% FBS, 5.12 µM | 107 | 85.5 | 86.9
RPMI 5 mM glucose + 10% FBS, 15.4 µM | 98 | 62.8 | 86.6
RPMI 5 mM glucose + 10% FBS, 46.1 µM | 99.6 | 55 | 18.2
RPMI 5 mM glucose + 10% dialyzed FBS, 0.000781 µM | 94.1 | 93.6 | 101
RPMI 5 mM glucose + 10% dialyzed FBS, 0.00234 µM | 96.1 | 102 | 95.2
RPMI 5 mM glucose + 10% dialyzed FBS, 0.00702 µM | 102 | 112 | 107
RPMI 5 mM glucose + 10% dialyzed FBS, 0.0211 µM | 99.2 | 107 | 106
RPMI 5 mM glucose + 10% dialyzed FBS, 0.0632 µM | 105 | 104 | 80.7
RPMI 5 mM glucose + 10% dialyzed FBS, 0.19 µM | 117 | 111 | 104
RPMI 5 mM glucose + 10% dialyzed FBS, 0.569 µM | 109 | 102 | 105
RPMI 5 mM glucose + 10% dialyzed FBS, 1.71 µM | 113 | 86.9 | 115
RPMI 5 mM glucose + 10% dialyzed FBS, 5.12 µM | 109 | 67.2 | 86.8
RPMI 5 mM glucose + 10% dialyzed FBS, 15.4 µM | 104 | 57.7 | 79.8
RPMI 5 mM glucose + 10% dialyzed FBS, 46.1 µM | 91.8 | 49.4 | 19.4

AUC of viability dose-response curve
Conditions | [4] | [5] | [6]
HPLM + 10% dialyzed FBS | 470 | 436 | 404
RPMI 5 mM glucose + 10% FBS | 468 | 427 | 432
RPMI 5 mM glucose + 10% dialyzed FBS | 462 | 415 | 444
